Patent US10669284B2, “Fused thiazolopyrimidine derivatives as MNKS inhibitors” (LIFEARC, priority 2015, dated 2020)
Where two headings read alike, the source gives them in different places.

Columns and labels:
CDK6/CCND3 = CDK6/CCND3 (Homo sapiens, UniProt Q00534); assay: Kinase selectivity screen CDK6/CCND3; settings: read-out: % inhibition of CDK6/CCND3
TBK1 = biological target: T1, TBK1 (Homo sapiens, UniProt Q9UHD2); assay: Kinase selectivity screen TBK1; settings: read-out: % inhibition of TBK1
T1 sequence (Q9UHD2 1-729): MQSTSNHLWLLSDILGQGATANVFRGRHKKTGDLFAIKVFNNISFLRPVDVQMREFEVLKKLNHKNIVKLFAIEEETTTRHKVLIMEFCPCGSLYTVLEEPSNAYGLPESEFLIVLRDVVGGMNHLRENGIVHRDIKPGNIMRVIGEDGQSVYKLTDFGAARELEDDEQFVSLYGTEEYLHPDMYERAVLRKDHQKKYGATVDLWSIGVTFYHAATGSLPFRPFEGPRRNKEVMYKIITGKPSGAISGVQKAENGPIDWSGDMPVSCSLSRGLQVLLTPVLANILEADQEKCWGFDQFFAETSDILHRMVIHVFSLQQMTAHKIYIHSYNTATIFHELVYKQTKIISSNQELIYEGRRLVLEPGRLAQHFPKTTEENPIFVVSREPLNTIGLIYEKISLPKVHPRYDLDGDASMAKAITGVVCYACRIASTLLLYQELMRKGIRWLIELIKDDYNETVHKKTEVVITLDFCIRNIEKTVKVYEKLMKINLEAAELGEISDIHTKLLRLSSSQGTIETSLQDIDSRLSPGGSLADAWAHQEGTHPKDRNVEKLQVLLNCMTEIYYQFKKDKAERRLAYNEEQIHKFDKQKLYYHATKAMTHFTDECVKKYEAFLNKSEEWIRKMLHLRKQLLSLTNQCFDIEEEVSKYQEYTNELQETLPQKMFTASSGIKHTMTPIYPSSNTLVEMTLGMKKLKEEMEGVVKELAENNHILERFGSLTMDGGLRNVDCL

FLT1 = FLT1 (Homo sapiens, UniProt P17948); assay: Kinase selectivity screen FLT1; settings: read-out: % inhibition of FLT1
Full-length human MNK1 = biological target: T2, Full-length human MNK1 (Homo sapiens, UniProt Q9BUB5, T385D); assay: MNK1 biochemical IC50 assay (Caliper Mobility Shift Assay)
T2 construct: GST (N); purchased Carna Biosciences 02-145; host or cells: baculovirus expression system

SGK1 = biological target: T3, SGK1 (Homo sapiens, UniProt O00141); assay: Kinase selectivity screen SGK1; settings: read-out: % inhibition of SGK1
T3 sequence (O00141 1-431): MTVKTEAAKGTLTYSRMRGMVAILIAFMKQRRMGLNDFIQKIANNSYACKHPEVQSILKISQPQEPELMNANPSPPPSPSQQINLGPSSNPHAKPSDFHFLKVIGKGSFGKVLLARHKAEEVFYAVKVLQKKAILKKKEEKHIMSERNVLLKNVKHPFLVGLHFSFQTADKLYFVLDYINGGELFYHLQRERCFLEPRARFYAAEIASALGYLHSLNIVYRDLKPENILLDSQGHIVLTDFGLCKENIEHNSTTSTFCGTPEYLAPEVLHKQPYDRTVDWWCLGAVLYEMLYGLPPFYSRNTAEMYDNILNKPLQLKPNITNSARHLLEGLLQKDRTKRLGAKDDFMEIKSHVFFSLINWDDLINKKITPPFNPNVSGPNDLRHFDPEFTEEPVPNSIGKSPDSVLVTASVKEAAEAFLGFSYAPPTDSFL

CDK9/CCNT1 = CDK9/CCNT1 (Homo sapiens, UniProt P50750); assay: Kinase selectivity screen CDK9/CCNT1; settings: read-out: % inhibition of CDK9/CCNT1
INSR = INSR (Homo sapiens, UniProt P06213); assay: Kinase selectivity screen INSR; settings: read-out: % inhibition of INSR
RPS6KA5 = RPS6KA5 (Homo sapiens, UniProt O75582); assay: Kinase selectivity screen RPS6KA5; settings: read-out: % inhibition of RPS6KA5
PIP5K1A = PIP5K1A (Homo sapiens, UniProt Q99755); assay: Kinase selectivity screen PIP5K1A; settings: read-out: % inhibition of PIP5K1A
[1] = read-out: P(IC50) MNK1 (converted)

Sequence of RPS6KA5 (O75582 whole entry, species assumed): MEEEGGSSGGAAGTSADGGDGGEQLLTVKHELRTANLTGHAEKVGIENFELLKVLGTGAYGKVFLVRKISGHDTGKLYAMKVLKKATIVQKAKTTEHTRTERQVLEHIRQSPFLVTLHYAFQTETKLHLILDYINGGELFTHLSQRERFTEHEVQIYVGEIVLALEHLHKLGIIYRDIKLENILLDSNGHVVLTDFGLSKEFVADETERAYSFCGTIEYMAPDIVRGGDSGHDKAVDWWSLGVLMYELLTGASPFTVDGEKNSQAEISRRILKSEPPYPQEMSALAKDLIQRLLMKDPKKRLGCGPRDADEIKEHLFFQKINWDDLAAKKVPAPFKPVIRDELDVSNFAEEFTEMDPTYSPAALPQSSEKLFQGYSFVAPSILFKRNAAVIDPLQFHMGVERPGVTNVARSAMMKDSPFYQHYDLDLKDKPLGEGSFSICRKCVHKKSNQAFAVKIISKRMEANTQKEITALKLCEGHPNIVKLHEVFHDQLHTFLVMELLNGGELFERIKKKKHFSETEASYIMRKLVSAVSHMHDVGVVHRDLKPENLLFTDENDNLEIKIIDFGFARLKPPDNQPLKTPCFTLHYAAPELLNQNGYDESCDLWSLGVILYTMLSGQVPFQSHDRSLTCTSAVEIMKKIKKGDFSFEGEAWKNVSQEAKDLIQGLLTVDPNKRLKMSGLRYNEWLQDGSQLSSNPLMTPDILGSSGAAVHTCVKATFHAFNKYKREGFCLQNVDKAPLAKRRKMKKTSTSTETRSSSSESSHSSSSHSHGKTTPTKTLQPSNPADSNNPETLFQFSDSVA
T2 sequence (Q9BUB5 1-424 isoform Q9BUB5-2 T344D): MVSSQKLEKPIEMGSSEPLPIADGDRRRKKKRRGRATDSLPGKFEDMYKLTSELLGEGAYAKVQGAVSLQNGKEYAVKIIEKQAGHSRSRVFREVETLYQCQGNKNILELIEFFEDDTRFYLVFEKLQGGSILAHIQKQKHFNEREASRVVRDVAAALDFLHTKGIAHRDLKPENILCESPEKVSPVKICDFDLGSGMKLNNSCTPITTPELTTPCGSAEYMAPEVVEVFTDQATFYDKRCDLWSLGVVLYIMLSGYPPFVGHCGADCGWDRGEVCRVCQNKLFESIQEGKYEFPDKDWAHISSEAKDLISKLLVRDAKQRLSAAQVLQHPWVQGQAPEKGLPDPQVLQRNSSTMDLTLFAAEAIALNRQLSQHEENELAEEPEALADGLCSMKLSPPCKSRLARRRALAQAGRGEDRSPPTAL
Sequence of PIP5K1A (Q99755 whole entry, species assumed): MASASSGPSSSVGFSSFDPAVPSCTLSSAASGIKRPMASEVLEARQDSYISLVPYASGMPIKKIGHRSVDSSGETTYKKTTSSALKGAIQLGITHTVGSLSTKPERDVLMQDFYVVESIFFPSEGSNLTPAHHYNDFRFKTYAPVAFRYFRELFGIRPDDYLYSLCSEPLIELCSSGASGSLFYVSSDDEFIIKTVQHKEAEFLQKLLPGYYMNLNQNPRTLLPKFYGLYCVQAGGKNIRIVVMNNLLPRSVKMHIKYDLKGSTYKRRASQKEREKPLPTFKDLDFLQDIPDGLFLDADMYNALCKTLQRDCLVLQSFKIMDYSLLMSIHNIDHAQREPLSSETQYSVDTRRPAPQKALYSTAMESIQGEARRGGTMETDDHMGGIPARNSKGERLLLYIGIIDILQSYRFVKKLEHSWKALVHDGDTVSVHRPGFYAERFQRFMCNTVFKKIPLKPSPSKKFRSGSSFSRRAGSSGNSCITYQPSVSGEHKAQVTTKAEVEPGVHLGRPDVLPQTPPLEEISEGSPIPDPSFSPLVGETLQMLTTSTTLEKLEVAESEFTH
Sequence of FLT1 (P17948 27-1338, species assumed): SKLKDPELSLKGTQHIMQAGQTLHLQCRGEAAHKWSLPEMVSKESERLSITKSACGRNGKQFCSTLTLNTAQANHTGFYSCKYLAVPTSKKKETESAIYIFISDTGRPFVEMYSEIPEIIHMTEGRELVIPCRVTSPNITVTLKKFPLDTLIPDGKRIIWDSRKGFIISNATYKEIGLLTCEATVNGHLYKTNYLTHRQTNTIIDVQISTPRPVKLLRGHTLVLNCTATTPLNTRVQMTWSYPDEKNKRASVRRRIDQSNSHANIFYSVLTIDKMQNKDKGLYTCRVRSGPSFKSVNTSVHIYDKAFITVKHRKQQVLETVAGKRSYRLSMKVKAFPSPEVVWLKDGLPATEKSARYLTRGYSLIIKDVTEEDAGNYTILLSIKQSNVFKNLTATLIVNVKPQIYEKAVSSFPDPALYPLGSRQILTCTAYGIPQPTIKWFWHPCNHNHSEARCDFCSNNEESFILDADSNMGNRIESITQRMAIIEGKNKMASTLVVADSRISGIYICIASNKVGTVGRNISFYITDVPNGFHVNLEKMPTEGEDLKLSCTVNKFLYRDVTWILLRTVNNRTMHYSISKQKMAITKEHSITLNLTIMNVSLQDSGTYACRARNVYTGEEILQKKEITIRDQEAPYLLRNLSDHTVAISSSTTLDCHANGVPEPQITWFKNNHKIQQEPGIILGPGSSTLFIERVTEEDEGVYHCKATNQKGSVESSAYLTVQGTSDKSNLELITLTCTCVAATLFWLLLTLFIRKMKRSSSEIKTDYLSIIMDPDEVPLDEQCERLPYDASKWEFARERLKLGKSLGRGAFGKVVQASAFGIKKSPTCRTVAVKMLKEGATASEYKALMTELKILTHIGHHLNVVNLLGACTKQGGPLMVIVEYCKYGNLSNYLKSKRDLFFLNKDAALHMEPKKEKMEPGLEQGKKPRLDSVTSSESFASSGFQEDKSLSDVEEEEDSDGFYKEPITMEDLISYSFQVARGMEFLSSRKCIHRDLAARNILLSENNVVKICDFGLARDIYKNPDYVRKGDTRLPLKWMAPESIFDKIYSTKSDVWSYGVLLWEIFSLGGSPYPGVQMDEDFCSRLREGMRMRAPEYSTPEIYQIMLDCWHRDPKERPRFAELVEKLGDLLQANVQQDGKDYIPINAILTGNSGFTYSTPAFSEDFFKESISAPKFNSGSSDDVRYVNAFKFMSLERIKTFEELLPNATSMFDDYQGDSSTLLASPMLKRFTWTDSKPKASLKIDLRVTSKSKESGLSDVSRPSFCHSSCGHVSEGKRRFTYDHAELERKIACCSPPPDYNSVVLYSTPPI
Sequence of CDK6/CCND3 (Q00534 whole entry, species assumed): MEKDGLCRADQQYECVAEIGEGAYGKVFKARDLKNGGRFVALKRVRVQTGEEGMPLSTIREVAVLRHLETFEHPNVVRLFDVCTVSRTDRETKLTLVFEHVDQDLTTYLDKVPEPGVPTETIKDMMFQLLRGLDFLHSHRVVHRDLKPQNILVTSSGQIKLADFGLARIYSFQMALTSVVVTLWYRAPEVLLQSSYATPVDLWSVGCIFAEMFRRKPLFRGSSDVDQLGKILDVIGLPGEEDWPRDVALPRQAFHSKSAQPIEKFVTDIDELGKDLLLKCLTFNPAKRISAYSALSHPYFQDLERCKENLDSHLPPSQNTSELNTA
Sequence of CDK6/CCND3 (P30281 whole entry partner, species assumed): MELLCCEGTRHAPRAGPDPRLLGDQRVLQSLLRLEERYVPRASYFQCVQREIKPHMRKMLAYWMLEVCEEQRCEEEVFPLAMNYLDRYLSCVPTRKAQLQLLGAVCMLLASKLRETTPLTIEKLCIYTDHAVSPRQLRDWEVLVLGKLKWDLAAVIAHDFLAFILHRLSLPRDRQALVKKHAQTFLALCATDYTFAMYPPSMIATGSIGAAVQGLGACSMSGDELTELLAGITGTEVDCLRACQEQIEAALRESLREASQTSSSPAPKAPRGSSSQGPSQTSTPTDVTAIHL
Sequence of CDK9/CCNT1 (P50750 whole entry, species assumed): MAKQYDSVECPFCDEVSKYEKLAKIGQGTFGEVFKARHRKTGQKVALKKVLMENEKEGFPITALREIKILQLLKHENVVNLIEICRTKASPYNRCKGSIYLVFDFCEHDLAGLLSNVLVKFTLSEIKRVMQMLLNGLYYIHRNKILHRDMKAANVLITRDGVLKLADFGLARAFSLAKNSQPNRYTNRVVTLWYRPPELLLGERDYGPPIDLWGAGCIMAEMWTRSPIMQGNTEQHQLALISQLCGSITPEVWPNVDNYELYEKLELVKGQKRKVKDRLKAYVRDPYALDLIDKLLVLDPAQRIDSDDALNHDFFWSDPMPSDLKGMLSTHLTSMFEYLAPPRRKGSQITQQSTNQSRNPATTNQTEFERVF
Sequence of CDK9/CCNT1 (O60563 whole entry partner, species assumed): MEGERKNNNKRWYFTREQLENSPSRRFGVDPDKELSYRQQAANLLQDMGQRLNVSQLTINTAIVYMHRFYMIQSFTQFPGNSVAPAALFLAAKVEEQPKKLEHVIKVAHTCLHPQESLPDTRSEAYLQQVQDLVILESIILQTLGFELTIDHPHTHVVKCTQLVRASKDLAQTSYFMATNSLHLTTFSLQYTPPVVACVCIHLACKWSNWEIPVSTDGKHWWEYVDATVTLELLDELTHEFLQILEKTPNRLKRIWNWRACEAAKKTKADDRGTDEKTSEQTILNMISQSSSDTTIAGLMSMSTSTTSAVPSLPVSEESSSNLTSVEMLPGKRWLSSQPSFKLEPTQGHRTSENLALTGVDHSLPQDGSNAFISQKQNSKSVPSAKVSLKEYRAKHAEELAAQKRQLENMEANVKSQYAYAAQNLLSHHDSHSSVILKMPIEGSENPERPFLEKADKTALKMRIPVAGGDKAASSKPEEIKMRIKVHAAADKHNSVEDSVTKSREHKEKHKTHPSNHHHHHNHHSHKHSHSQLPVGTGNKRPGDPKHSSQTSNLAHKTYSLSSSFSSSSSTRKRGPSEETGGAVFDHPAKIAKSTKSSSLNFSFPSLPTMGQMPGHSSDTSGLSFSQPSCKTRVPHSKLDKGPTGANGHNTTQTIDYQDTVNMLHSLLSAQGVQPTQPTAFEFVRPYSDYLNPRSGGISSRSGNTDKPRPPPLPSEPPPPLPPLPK

Row | Structure (SMILES) | inhibition at 1 µM (CDK6/CCND3) | inhibition at 1 µM (TBK1) | inhibition at 1 µM (FLT1) | IC50 (Full-length human MNK1) | inhibition at 1 µM (SGK1) | inhibition at 1 µM (CDK9/CCNT1) | inhibition at 1 µM (INSR) | inhibition at 1 µM (RPS6KA5) | inhibition at 1 µM (PIP5K1A) | IC50 (Full-length human MNK1; [1])
1 | CC(C)Oc1cc(F)ccc1Nc1ncnc2sc(C(=O)NCC3CCNCC3)nc12 [Example 10, 7-(4-fluoro-2-isopropoxy-anilino)-N-(4-piperidylmethyl)thiazolo[5,4-d]pyrimidine-2-carboxamide] | 3% | 14% | 12% | 50.1 nM | 14% | 2% | 8% | 0% | 2% | 
2 | O=C(NCC1CCNCC1)c1nc2c(N3CCc4cc(F)ccc43)ncnc2s1 [Example 58, 7-(5-fluoroindolin-1-yl)-N-(4-piperidylmethyl)thiazolo[5,4-d]pyrimidine-2-carboxamide] | 0% | 17% | 6% |  | 24% | 11% | 20% | 0% | 1% | 5.01 nM
3 | CN(C)CCCNC(=O)c1nc2c(N3CCc4cc(F)ccc43)ncnc2s1 [Example 64, N-[3-(dimethylamino)propyl]-7-(5-fluoroindolin-1-yl)thiazolo[5,4-d]pyrimidine-2-carboxamide] | 9% | 7% | 27% |  | 41% | 4% | 0% | 24% | 0% | 2.51 nM
